Laboratory results reported in PMC10482691, “LTP induction by structural rather than enzymatic functions of CaMKII” (Nature, 2023).

Key:
SGK(h) = SGK(h) (Homo sapiens, UniProt O00141); assay: Kinase selectivity panel (residual activity at 1 μM); assay type: biochemical; settings: inhibitor at 1 μM; read-out: residual kinase activity in % of maximal activity
CaMKIIα WT = CaMKIIα WT (Homo sapiens, UniProt Q9UQM7); assay: In vitro kinase reactions with CaMKII WT ± NM-PP1 (pT286, pS831); assay type: biochemical
Protocol: Fig. 4 The CaMKII mutation F89G impairs ATP binding but binds the ATP-competitive inhibitor NM-PP1 that restores GluN2B binding and LTP-induced synaptic translocation. Data are presented as mean values ± s.e.m. a, Schematic of the pharmacogenetic method of ATP-competitive CaMKII inhibition; enlargement of the CaMKII ATP-binding pocket by the F89G mutation allows for selective binding of the ATP-competitive inhibitor NM-PP1. b, Immunoblots of in vitro kinase reactions at 30 °C including GFP–CaMKII WT, K42M and F89G with GST–GluA1-c tail. […] Correlation indices were measured before and after Ionomycin-induced colocalization of GFP–CaMKII (WT, K42M and F89G) with mCherry-2BC, represented as change in the correlation index (vehicle: n = 22, 17, 12 cells; NM-PP1: n = 20, 24, 13 cells; one-way ANOVA, Tukey’s multiple comparisons test). […] CaMKII synaptic enrichment was measured before and after cLTP (n = 13, 14, 14 cells; RM two-way ANOVA with Šídák’s multiple comparisons test). […] CaMKII synaptic enrichment was measured before and after cLTP (n = 7, 6, 7 cells; RM two-way ANOVA with Šídák’s multiple comparisons test). […]
CaMKII-mediated phosphorylation of GluA1 S831 or GluN2B S1303 was measured by in vitro kinase reaction with a purified GST–GluA1 C-terminal tail or GST-GluN2B C-terminal tail. […]

Chain of SGK(h) (O00141 whole entry): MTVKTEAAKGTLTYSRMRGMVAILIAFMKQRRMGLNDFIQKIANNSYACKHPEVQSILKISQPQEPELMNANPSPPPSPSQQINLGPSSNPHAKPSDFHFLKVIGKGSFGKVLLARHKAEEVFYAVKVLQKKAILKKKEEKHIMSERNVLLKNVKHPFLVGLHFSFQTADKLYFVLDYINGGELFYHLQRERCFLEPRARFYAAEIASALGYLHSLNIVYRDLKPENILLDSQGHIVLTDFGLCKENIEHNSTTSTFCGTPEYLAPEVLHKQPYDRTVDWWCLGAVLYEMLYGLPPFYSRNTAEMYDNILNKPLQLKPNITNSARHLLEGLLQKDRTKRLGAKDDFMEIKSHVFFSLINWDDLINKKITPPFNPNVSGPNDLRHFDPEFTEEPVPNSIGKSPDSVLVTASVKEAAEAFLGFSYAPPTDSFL

SMILES: NCCNc1cccc(-c2ccnc3[nH]c4ccccc4c23)c1 [AS283]
- remaining activity at 1 µM (SGK(h)): 86%

SMILES: CC(C)(C)n1nc(Cc2cccc3ccccc23)c2c(N)ncnc21 [NM-PP1]
- effect on pT286 for CaMKII WT (CaMKIIα WT): did not affect
